Where only a bound is given, the exact number is not on record here.

As for `C/C(=C\c1ccc(OC(C)C)cc1Oc1ncc(C(F)(F)F)cc1Cl)C(=O)NS(=O)(=O)NCc1cnc(C)cn1`, the melting point (usually the temperature of the solid-liquid transition) is 126 to 128 °C. With `N[C@@H](Cc1ccc(F)cc1)[C@H](O)c1ccc(F)cc1` (racemic) the figure was 66 to 67 °C; with `Cc1cccc(-c2nccc3nc(N)nn23)c1`, 125 to 126 °C; with `CCSc1ccc(-c2cnccn2)c2c1C(=O)CC(C)C2` (stereo not given), 152 to 154 °C. The compound `Fc1ccc(-c2ncn(C3CC3)c2-c2ccncc2)cc1` returned a melting point of 129 to 130 °C. With `N#Cc1cnn2c(C(F)(F)F)cc(-c3ccc(F)c(C(F)(F)F)c3)nc12` the figure was 204 °C. With `CC(=O)O[C@H]1CC[C@H](c2ccc(CCl)cc2)CC1` the figure was 87 to 89 °C; with `O=C(c1cccs1)C1CCN(Cc2ccccc2)CC1`, 83.9 °C; with `CN(C)C(=O)c1cc(C#N)cnc1Cl`, 148 to 153 °C. With `Cc1nc(NC(=O)c2cnn3c(C(F)F)cc(-c4ccc(C(F)(F)F)cc4)nc23)sc1S(=O)(=O)NC(C)(C)CO` the figure was 268 °C; with `CN1C(=O)C(NC(=O)OCc2ccccc2)N=C(c2ccccc2)c2ccccc21` (stereo not given), 78 to 80 °C. The compound `CCOC(=O)c1c(Cn2cncn2)nc2cc(OC)c(OC)cc2c1-c1ccc(OC)c(OC)c1` gave a melting point of 176 to 177 °C.

Compound `CN1C(=O)SC(S(=O)(=O)c2cccc3c(Br)cccc23)C1=O` (stereo not given) had a melting point of 150 to 151 °C. With `CC1C(=O)N(c2ccc([N+](=O)[O-])cc2)C(=S)N1c1ccc(Cc2ccccc2)cc1` (stereo not given) the figure was 200 °C; with `CNc1c(C)cc(C(C)(C)c2ccc(C(C)(C)c3cc(C)c(NC)c(C)c3)cc2)cc1C`, 110 to 115 °C; with `Cc1nc(N)nc(N)c1N=Nc1ccc(Br)cc1`, 245 to 246 °C. With `NC(=O)C1CCC2(CC1)OCCO2` the figure was 167 to 170 °C.

Regarding `[N-]=[N+]=Nc1ccc(S(=O)(=O)NCCc2ccc(CCO)cc2)cc1`, the melting point lay within 80 to 82 °C. `Cc1ccc(OCc2ccccc2)c(C(CCO)c2ccccc2)c1` (stereo not given) had a melting point of 69 to 71 °C. Turning to `Cc1c([N+](=O)[O-])ccc2[nH]ccc12`, the melting point was in the range of 179 to 180 °C.

Turning to `OCc1ccc(OCc2ccc3ccccc3n2)cc1`, the melting point was 131 to 135 °C. With `COc1ccc2c(c1)C(=O)OC(=O)C2` the figure was 138 to 140 °C. With `CCC(CC)Nc1cc(C)nc(Oc2c(C)cccc2C)c1N` the figure was 98 to 100 °C; with `Cc1ccc(N2C(=O)c3ccccc3C2=O)c(O)c1`, 251 to 254 °C. With `COc1ccc(N2C(=O)NC3(CCOCC3)C2=O)cc1` the figure was 253 to 254 °C. In turn, `COP(=O)(OC)C(O)=Cc1ccc(C)cc1` had a melting point of 100 to 102 °C.

The compound `COC(=O)c1cc(N)c2cc(Cc3ccc(F)cc3)cnc2c1O` had a melting point of 114 to 115 °C.

Take `COc1nc2cc(Cl)c(Cl)c(-n3c(CO)nnc3-c3cccnc3)c2nc1OC`: the melting point is 209 to 210 °C. As to `O=C(CCl)Nc1cc(C2(Cl)C=C(C(F)(F)F)C=NC2)ccc1O` (stereo not given), the melting point was 205 °C. With `Cn1c(Cl)cc(=O)n(C2CCCCC2)c1=O` the figure was 132 to 133 °C; with `CCCCCCCCCC(=O)NC(=O)OCc1nc(C(C)C)c(Sc2cc(Cl)cc(Cl)c2)n1CC`, 102 to 103 °C.

`O=CCCOc1ccc(CC2SC(=O)NC2=O)cc1` (stereo not given) displayed a melting point of 48 to 51 °C. With `COC=C(C#C[Si](C)(C)C)C(=O)OC` the figure was 70 to 72 °C; with `CC(CC#N)C(=O)c1ccc(C(=O)C(C)CC#N)cc1` (stereo not given), 142 to 145 °C.

For `Cc1ccnc(NC(c2ccc([N+](=O)[O-])cc2)c2ccc3cccnc3c2O)n1` (stereo not given), the melting point was in the range of 136 to 145 °C. With `CC(C)(N)CNC(=O)CNC(=O)c1ccccc1` the figure was 80 to 84 °C; with `Cc1cc2c(cc1C(=O)CBr)C(C)(C)CC(C)C2(C)C` (stereo not given), 68 °C; with `CCC(=NNC(=O)OC(C)(C)C)c1ccncc1`, 170 °C. With `CS(=O)(=O)c1ccc(Oc2cc(OCc3ccccc3)c3[nH]c(C4=NCC(CCO)S4)cc3c2)cc1` (stereo not given) the figure was 97 to 98 °C; with `CC(C)(C)CNc1cc(F)cc(C(=O)Nc2ccc(OCCN3CCOCC3)c3ccccc23)c1`, 85 to 87 °C; with `NS(=O)(=O)NC[C@H]1COc2cc(Cl)c(Cl)cc2O1`, 119 to 121 °C. For `CC1CCN(Cc2ccc(CCC(=O)Nc3ccc(-c4ccc(Cl)cc4)cc3)cc2)CC1`, the melting point lay within 150 to 151 °C. The compound `Nc1nnc(-c2cccc(OCc3c(Cl)cccc3Cl)c2)c(N)n1` showed a melting point of 190 to 192 °C.

Regarding `O=C(OCc1cc(F)nc(F)c1F)c1ccccc1`, the melting point lay in the range of 73 to 76 °C. With `Cc1nn(-c2ccc(Cl)cc2Cl)c(=O)n(C)c1=O` the figure was 109 to 110 °C. Compound `CC1(C)CCC(C)(C)c2cc(COc3ccccc3-c3ccccc3C(=O)O)ccc21` returned a melting point of 75 to 76 °C.

`COc1cccc(N(C(=O)c2ccc(Br)s2)C2CC2)c1` yielded a melting point of 60 °C. With `NCc1ccn(-c2cc3[nH]c(=O)c(=O)[nH]c3cc2[N+](=O)[O-])c1`, the melting point was more than 300 °C.

For the compound `C=CC(=O)O[C@H]1CC[C@H](c2cccc(F)c2F)CC1`, the melting point was 72.9 to 73.6 °C. With `COc1ccc2c(c1)CCc1ccccc1C2=O` the figure was 72 to 73 °C.

Turning to `CC(=O)C(=C1SCCCN1C(C)=O)[N+](=O)[O-]`, the melting point was in the range of 73.5 to 76 °C. With `O=C(O)Cn1c(=O)c(=O)[nH]c2cc([N+](=O)[O-])ccc21` the figure was more than 320 °C. With `N#Cc1n[nH]c2nc(N3CCN(CCO)CC3)ccc12` the figure was 232 to 233 °C; with `COc1cc(C(=O)C=Cc2ccncc2)cc(OC)c1OC`, 127 to 129 °C; with `COc1cc2cc3ncc(C#N)c(Nc4ccc(F)c(Cl)c4)c3cc2cc1OC`, more than 280 °C. The compound `CCOc1cc2ncc(C#N)c(Nc3cccc(Cl)c3)c2cc1OCC` showed a melting point of 188 to 190 °C. Take `c1ccc(Cn2cc(-c3ncc(-c4ccc5cc(OCc6nnn[nH]6)ccc5c4)o3)c3ccccc32)cc1`: the melting point lay in the range of 244 to 246 °C. `COC(=O)C(=O)Cc1nc([N+](=O)[O-])cn1C` displayed a melting point of 186 °C. With `CC(C)(CN)c1ccc(C(=O)Nc2cn3cc(Cl)ccc3n2)cc1` the figure was 245 to 247 °C; with `O=C1Cn2c(c(Cl)c3ccccc32)-c2ccccc2N1`, 287 to 289 °C; with `C[C@H]1CCCC(C)(C)[C@@H]1[C@H](O)c1ccc2c(c1)CCN(C(N)=O)C2`, 99.1 to 101 °C. With `CS(=O)(=O)c1ccc(-n2cc(-c3ccc(F)cc3)nc2-c2ccccn2)cc1` the figure was 88 to 91 °C; with `O=P(Oc1ccccc1)(Oc1ccc(-c2cssc2=S)cc1)Oc1ccc(-c2cssc2=S)cc1`, 75 to 80 °C; with `CCCCCc1cc(C(=O)OC)ccc1O`, 82.5 to 83.5 °C. With `CC(C)c1nn(-c2ccccc2)c(-c2ccc(F)cc2)c1CCC=O` the figure was 86 to 88 °C.

The values are drawn from a melting point compilation (Tetko et al.; mined from patent text by program, amines drawn as free bases though some values may be those of a salt).
